Assay results: ChEMBL document CHEMBL4342418, “1,2,3-Triazole-containing hybrids as potential anticancer agents: Current developments, action mechanisms and structure-activity relationships” (Eur J Med Chem, 2019)

Key:
HCT-116 = assay: Antiproliferative activity against human HCT116 cells assessed as reduction in cell viability after 48 hrs by MTT assay; format: functional, cell-based; conditions: HCT-116, 48 h
A549 [1] = assay: Antiproliferative activity against human A549 cells assessed as reduction in cell viability after 48 hrs by MTT assay; format: functional, cell-based; conditions: A549, 48 h
DU-145 [2] = assay: Antiproliferative activity against human DU145 cells assessed as reduction in cell viability after 48 hrs by MTT assay; format: functional, cell-based; conditions: DU-145, 48 h
MDA-MB-231 [3] = assay: Antiproliferative activity against human MDA-MB-231 cells assessed as reduction in cell viability after 48 hrs by MTT assay; format: functional, cell-based; conditions: MDA-MB-231, 48 h
HEK293 = assay: Cytotoxicity against HEK293 cells assessed as reduction in cell viability after 48 hrs by MTT assay; format: cell-based; conditions: Homo sapiens, HEK293, 48 h
MDA-MB-231 [4] = assay: Antiproliferative activity against human MDA-MB-231 cells assessed as reduction in cell viability after 72 hrs by MTT assay; format: functional, cell-based; conditions: MDA-MB-231, 72 h, read-out: IC50
U-87 MG = assay: Antiproliferative activity against human U87 cells assessed as reduction in cell viability after 72 hrs by MTT assay; format: functional, cell-based, U-87MG ATCC
IMR-32 = assay: Antiproliferative activity against human IMR32 cells assessed as reduction in cell viability after 72 hrs by MTT assay; format: functional, cell-based; conditions: IMR-32, 72 h
MCF7 [5] = assay: cells; format: functional, cell-based; conditions: Homo sapiens
Description: Antiproliferative activity against human MCF7 cells by MTT assay

A549 [6] = assay: cells; format: functional, cell-based; conditions: Homo sapiens
Description: Antiproliferative activity against human A549 cells by MTT assay

MCF-10A = assay: Cytotoxicity against human MCF10A cells by MTT assay; format: cell-based
HT-29 [7] = assay: Antiproliferative activity against human HT-29 cells by MTT assay; format: functional, cell-based
DU-145 [8] = assay: Antiproliferative activity against human DU145 cells by MTT assay; format: functional, cell-based
MV4-11 = assay: Antiproliferative activity against human MV4-11 cells by MTT assay; format: functional, cell-based
HeLa [9] = assay: Antiproliferative activity against human HeLa cells assessed as reduction in cell viability after 72 hrs by MTT assay; format: functional, cell-based
Caco-2 = assay: Antiproliferative activity against human Caco2 cells assessed as reduction in cell viability after 72 hrs by MTT assay; format: functional, cell-based; conditions: Caco-2, 72 h
K562 = assay: Antiproliferative activity against human K562 cells assessed as reduction in cell viability after 72 hrs by MTT assay; format: functional, cell-based; conditions: K562, 72 h
[10] = Cytotoxicity against dog MDCK1 cells assessed as reduction in cell viability after 72 hrs by MTT assay; format: cell-based; conditions: Canis lupus familiaris, MDCK1, 72 h
HL-60 = assay: Antiproliferative activity against human HL60 cells assessed as reduction in cell viability after 48 hrs by MTT assay; format: functional, cell-based; conditions: HL-60, 48 h
SW480 = assay: Antiproliferative activity against human SW480 cells assessed as reduction in cell viability after 48 hrs by MTT assay; format: functional, cell-based; conditions: SW480, 48 h
[11] = Antiproliferative activity against human SMCC7721 cells assessed as reduction in cell viability after 48 hrs by MTT assay; format: functional, cell-based
MCF7 [12] = assay: Antiproliferative activity against human MCF7 cells assessed as reduction in cell viability after 48 hrs by MTT assay; format: functional, cell-based; conditions: MCF7, 48 h
C2C12 = assay: Cytotoxicity against mouse C2C12 cells assessed as reduction in cell viability after 48 hrs by MTT assay; format: cell-based; conditions: C2C12, 48 h
DU-145 [13] = assay: Antiproliferative activity against human DU145 cells by SRB assay; format: functional, cell-based
HeLa [14] = assay: Antiproliferative activity against human HeLa cells by SRB assay; format: functional, cell-based
MDA-MB-231 [15] = assay: Antiproliferative activity against human MDA-MB-231 cells by SRB assay; format: functional
HepG2 = assay: Antiproliferative activity against human HepG2 cells by SRB assay; format: functional, cell-based
HT-29 [16] = assay: Antiproliferative activity against human HT-29 cells assessed as reduction in cell viability after 48 hrs by MTT assay; format: functional, cell-based; conditions: HT-29, 48 h
MCF7 [17] = assay: Antiproliferative activity against human MCF7 cells assessed as reduction in cell viability after 72 hrs by MTT assay; format: functional, cell-based; conditions: MCF7, 72 h
HT-29 [18] = assay: Antiproliferative activity against human HT-29 cells assessed as reduction in cell viability after 72 hrs by MTT assay; format: functional, cell-based; conditions: HT-29, 72 h
MOLT-4 = assay: Antiproliferative activity against human MOLT4 cells assessed as reduction in cell viability after 72 hrs by MTT assay; format: functional, cell-based; conditions: MOLT-4, 72 h

Q: Which IC50 (HCT-116) does the source give for `O=C(c1cn(Cc2ccc(-c3ccc(Cl)cc3)cc2)nn1)c1c(-c2ccccc2)nc2ccccn12` here?
A: 0.51 to 3.98 µM

Q: And the IC50 (A549 [1])?
A: 0.51 to 3.98 µM

Q: What about the IC50 (DU-145 [2]) of the same molecule?
A: 0.51 to 3.98 µM

Q: And the IC50 (MDA-MB-231 [3])?
A: 0.51 to 3.98 µM

Q: And the IC50 (HEK293)?
A: 91.2 µM

Q: With `Cc1n[nH]c(=O)c2c1c1cc(F)ccc1n2Cc1cn(C2CCCCC2)nn1` as the molecule, how does the IC50 (MDA-MB-231 [4]) read?
A: 0.042 to 0.478 µM

Q: And the IC50 (U-87 MG)?
A: 0.042 to 0.478 µM

Q: And the IC50 (IMR-32)?
A: 0.042 to 0.478 µM

Q: With `C=CCC1CN2CCC1CC2[C@@H](c1ccnc2ccc(OC)cc12)n1cc(-c2ccc3ccccc3n2)nn1` (some centres not stated) as the molecule, how does the IC50 (MCF7 [5]) read?
A: 0.53 to 14.6 µM

Q: And the IC50 (A549 [6])?
A: 0.53 to 14.6 µM

Q: And the IC50 (MCF-10A)?
A: 0.53 to 14.6 µM

Q: And the IC50 (HT-29 [7])?
A: 0.53 to 14.6 µM

Q: What about the IC50 (DU-145 [8]) of the same molecule?
A: 0.53 to 14.6 µM

Q: What about the IC50 (MV4-11) of the same molecule?
A: 0.53 to 14.6 µM

Q: For `COc1cccc(-c2cn(Cc3cc(=O)oc4cc(O)c(O)cc34)nn2)c1`, which IC50 (HeLa [9]) is on record?
A: 9.7 to 81.9 µM

Q: What about the IC50 (Caco-2) of the same molecule?
A: 9.7 to 81.9 µM

Q: What about the IC50 (K562) of the same molecule?
A: 9.7 to 81.9 µM

Q: What about the IC50 [10] of the same molecule?
A: 36.7 to 46 µM

Q: Which results are given for `C=CCC1CN2CCC1CC2[C@H](O)c1ccnc2ccc(-c3cn(-c4ccccc4)nn3)cc12` (some centres not stated)?
A: IC50 (MCF7 [5]): 0.53 to 14.6 µM; IC50 (A549 [6]): 0.53 to 14.6 µM; IC50 (MCF-10A): 0.53 to 14.6 µM; IC50 (HT-29 [7]): 0.53 to 14.6 µM; IC50 (DU-145 [8]): 0.53 to 14.6 µM; IC50 (MV4-11): 0.53 to 14.6 µM

Q: With `COc1ccccc1-c1cn(Cc2cc(=O)oc3cc(O)c(O)cc23)nn1` as the molecule, how does the IC50 (HeLa [9]) read?
A: 9.7 to 81.9 µM

Q: What about the IC50 (Caco-2) of the same molecule?
A: 9.7 to 81.9 µM

Q: And the IC50 (K562)?
A: 9.7 to 81.9 µM

Q: And the IC50 [10]?
A: 36.7 to 46 µM

Q: Which IC50 (A549 [1]) does the source give for `COc1cc([C@@H]2c3cc4c(cc3[C@H](n3cc(COCC(COCc5cn([C@H]6c7cc8c(cc7[C@@H](c7cc(OC)c(O)c(OC)c7)[C@H]7C(=O)OC[C@@H]76)OCO8)nn5)O[C@@H]5O[C@H](COC(C)=O)[C@@H](OC(C)=O)[C@H](OC(C)=O)[C@H]5OC(C)=O)nn3)[C@H]3COC(=O)[C@H]23)OCO4)cc(OC)c1O` (some centres not stated) here?
A: 0.43 to 30.5 µM

Q: What about the IC50 (HL-60) of the same molecule?
A: 0.43 to 30.5 µM

Q: What about the IC50 (SW480) of the same molecule?
A: 0.43 to 30.5 µM

Q: What about the IC50 [11] of the same molecule?
A: 0.43 to 30.5 µM

Q: What does the source list for `O=C(Nc1ccc(-n2cc(Oc3ccc(-c4cc(-c5ccc(Oc6cn(-c7ccc(NC(=O)[C@@H]8CCCN8)cc7)nn6)cc5)cc(-c5ccc(Oc6cn(-c7ccc(NC(=O)[C@@H]8CCCN8)cc7)nn6)cc5)c4)cc3)nn2)cc1)[C@@H]1CCCN1`?
A: IC50 (MCF7 [12]): 7.1 to 13.4 µM; IC50 (HCT-116): 7.1 to 13.4 µM; IC50 (C2C12): > 40 µM

Q: For `COC(=O)Nc1nc2cc(C(=O)c3cccs3)ccc2[nH]1` [NOCODAZOLE], which IC50 (HCT-116) is on record?
A: 1.38 to 1.65 µM

Q: What about the IC50 (A549 [1]) of the same molecule?
A: 1.38 to 3.1 µM

Q: What about the IC50 (DU-145 [2]) of the same molecule?
A: 1.38 to 3.1 µM

Q: What about the IC50 (MDA-MB-231 [3]) of the same molecule?
A: 1.38 to 1.65 µM

Q: And the IC50 (HEK293)?
A: 2.2 to 3.1 µM

Q: And the GI50 (DU-145 [13])?
A: 0.011 to 0.034 µM

Q: What about the GI50 (HeLa [14]) of the same molecule?
A: 0.011 to 0.034 µM

Q: What about the GI50 (MDA-MB-231 [15]) of the same molecule?
A: 0.011 to 0.034 µM

Q: What about the GI50 (HepG2) of the same molecule?
A: 0.011 to 0.034 µM

Q: What about the IC50 (HT-29 [16]) of the same molecule?
A: 2.2 to 3.1 µM

Q: Which results are given for `Cc1n[nH]c(=O)c2c1c1cc(F)ccc1n2Cc1cn(Cc2ccc(F)cc2)nn1`?
A: IC50 (MDA-MB-231 [4]): 0.042 to 0.478 µM; IC50 (U-87 MG): 0.042 to 0.478 µM; IC50 (IMR-32): 0.042 to 0.478 µM

Q: With `CCCC(=O)OC[C@H]1O[C@@H](OC(COCc2cn([C@H]3c4cc5c(cc4[C@@H](c4cc(OC)c(O)c(OC)c4)[C@H]4C(=O)OC[C@@H]43)OCO5)nn2)COCc2cn([C@H]3c4cc5c(cc4[C@@H](c4cc(OC)c(O)c(OC)c4)[C@H]4C(=O)OC[C@@H]43)OCO5)nn2)[C@H](OC(=O)CCC)[C@@H](OC(=O)CCC)[C@@H]1OC(=O)CCC` (some centres not stated) as the molecule, how does the IC50 (A549 [1]) read?
A: 0.43 to 30.5 µM

Q: What about the IC50 (HL-60) of the same molecule?
A: 0.43 to 30.5 µM

Q: And the IC50 (SW480)?
A: 0.43 to 30.5 µM

Q: And the IC50 [11]?
A: 0.43 to 30.5 µM

Q: For `O=C1C=C(NCc2cn(Cc3ccc(C(F)(F)F)cc3)nn2)C(=O)c2ccccc21`, which IC50 (MCF7 [17]) is on record?
A: 6.8 to 10.4 µM

Q: And the IC50 (HT-29 [18])?
A: 6.8 to 10.4 µM

Q: And the IC50 (MOLT-4)?
A: 6.8 to 10.4 µM

Q: What does the source list for `COc1cc(-c2ccc(Cn3cc(C(=O)c4c(-c5ccccc5)nc5ccccn45)nn3)cc2)cc(OC)c1OC`?
A: IC50 (HCT-116): 0.51 to 3.98 µM; IC50 (A549 [1]): 0.51 to 3.98 µM; IC50 (DU-145 [2]): 0.51 to 3.98 µM; IC50 (MDA-MB-231 [3]): 0.51 to 3.98 µM; IC50 (HEK293): 63.5 µM

Q: Which IC50 (MCF7 [5]) does the source give for `C=CCC1CN2CCC1CC2[C@H](O)c1cc(-c2cn(-c3ccccc3)nn2)nc2ccc(OC)cc12` (some centres not stated) here?
A: 0.53 to 6.4 µM

Q: What about the IC50 (A549 [6]) of the same molecule?
A: 0.53 to 6.4 µM

Q: And the IC50 (MCF-10A)?
A: 0.53 to 6.4 µM

Q: And the IC50 (HT-29 [7])?
A: 0.53 to 6.4 µM

Q: And the IC50 (DU-145 [8])?
A: 0.53 to 6.4 µM

Q: And the IC50 (MV4-11)?
A: 0.53 to 6.4 µM

Q: With `C=CCC1CN2CCC1CC2[C@H](O)c1cc(-c2cn(-c3ccc(O)cc3)nn2)nc2ccc(OC)cc12` (some centres not stated) as the molecule, how does the IC50 (MCF7 [5]) read?
A: 0.53 to 14.6 µM

Q: What about the IC50 (A549 [6]) of the same molecule?
A: 0.53 to 14.6 µM

Q: And the IC50 (MCF-10A)?
A: 0.53 to 14.6 µM

Q: And the IC50 (HT-29 [7])?
A: 0.53 to 14.6 µM

Q: What about the IC50 (DU-145 [8]) of the same molecule?
A: 0.53 to 14.6 µM

Q: What about the IC50 (MV4-11) of the same molecule?
A: 0.53 to 14.6 µM
